Measurements taken from US11203563B2, “Preparation of zinc linolenate, and application of zinc linolenate in preparing anti-helicobacter pylori drug” (NANJING MEDICAL UNIVERSITY, priority 2018, dated 2021).

Experiments:
Experiment in all cases: MIC by microdilution method, non-Helicobacter pylori bacteria
Assay type in all cases: cell-based
Design in all cases: key: +: Bacterial growth; −: No bacterial growth
Conditions in all cases: 72 h
[1] = test system: Proteus mirabilis (YF163006)
Method: (§1) 2.2 Detection of minimum inhibitory concentration (MIC, 100 µL system) of zinc linolenate for non-Helicobacter pylori bacteria by microdilution method
(§2) (1) Zinc linolenate (2 mg/mL) is prepared.
(§3) (3) Bacterial solution preparation: the non-Helicobacter pylori grown in a log phase on a solid plate is taken to make a bacterial suspension with a BHI culture medium, the absorbance (OD600) is adjusted to 0.3 (1×10^8 CFU/mL), and the bacterial suspension is diluted 100 times to 1×10^6 CFU/mL for use.
(§4) (4) Inoculation of bacterial solution: 10 μL of bacterial solution above is taken and added to the 1-8th wells (the concentration of the bacterial solution per well is about 1.0×10^5 CFU/mL). Culture is performed for 72 h to judge the result. The drug concentrations of the first-seventh wells are 128, 64, 32, 16, 8, 4, and 2 μg/mL, respectively.
(§5) The experiment only makes sense when the bacteria obviously grow in the 8th well, i.e. the positive control well (without antibiotics). When a single drift occurs in the microdilution method, the maximum drug concentration that inhibits bacterial growth should be recorded. If there are multiple drifts, the results should not be reported and the experiment should be repeated. The experiment is repeated 3 times for each drug.

Morganella morganii = test system: Morganella morganii
Method: as §1, §2, §3, §4, §5

[2] = test system: Streptococcus pneumoniae (ATCC49619)
Method: as §1, §2, §3, §4, §5

[3] = test system: Neisseria gonorrhoeae (ATCC19424)
Method: as §1, §2, §3, §4, §5

[4] = test system: Acinetobacter baumannii (ATCC19606)
Method: as §1, §2, §3, §4, §5

[5] = test system: Staphylococcus aureus (ATCC6538)
Method: as §1, §2, §3, §4, §5

Measured: Bacterial growth

CC/C=C\C/C=C\C/C=C\CCCCCCCC(=O)[O-].CC/C=C\C/C=C\C/C=C\CCCCCCCC(=O)[O-].[Zn+2] [zinc linolenate]
+: [1]; zinc linolenate 2 μg/ml | [1]; zinc linolenate 4 μg/ml | [1]; zinc linolenate 8 μg/ml | [1]; zinc linolenate 16 μg/ml | [1]; zinc linolenate 32 μg/ml | [1]; zinc linolenate 64 μg/ml | [1]; zinc linolenate 128 μg/ml | Morganella morganii; zinc linolenate 2 μg/ml | Morganella morganii; zinc linolenate 4 μg/ml | Morganella morganii; zinc linolenate 8 μg/ml | Morganella morganii; zinc linolenate 16 μg/ml | Morganella morganii; zinc linolenate 32 μg/ml | Morganella morganii; zinc linolenate 64 μg/ml | [2]; zinc linolenate 2 μg/ml | [2]; zinc linolenate 4 μg/ml | [2]; zinc linolenate 8 μg/ml | [2]; zinc linolenate 16 μg/ml | [2]; zinc linolenate 32 μg/ml | [2]; zinc linolenate 64 μg/ml | [2]; zinc linolenate 128 μg/ml | [3]; zinc linolenate 2 μg/ml | [3]; zinc linolenate 4 μg/ml | [3]; zinc linolenate 8 μg/ml | [3]; zinc linolenate 16 μg/ml | [3]; zinc linolenate 32 μg/ml | [3]; zinc linolenate 64 μg/ml | [3]; zinc linolenate 128 μg/ml | [4]; zinc linolenate 2 μg/ml | [4]; zinc linolenate 4 μg/ml | [4]; zinc linolenate 8 μg/ml | [4]; zinc linolenate 16 μg/ml | [4]; zinc linolenate 32 μg/ml | [4]; zinc linolenate 64 μg/ml | [4]; zinc linolenate 128 μg/ml | [5]; zinc linolenate 2 μg/ml | [5]; zinc linolenate 4 μg/ml | [5]; zinc linolenate 8 μg/ml | [5]; zinc linolenate 16 μg/ml | [5]; zinc linolenate 32 μg/ml | [5]; zinc linolenate 64 μg/ml | [5]; zinc linolenate 128 μg/ml
−: Morganella morganii; zinc linolenate 128 μg/ml
